Patent US20220274938A1, “5-[(1S)-1-(4-BROMOPHENOXY)ETHYL]-2H-TETRAZOLE DERIVATIVES AND RELATED COMPOUNDS AS CLC-1 ION CHANNEL INHIBITORS FOR TREATING NEUROMUSCULAR DISORDERS” (NMD PHARMA A/S, priority 2019, published 2022)

Target: T1, CIC-1 ion channel (Rattus norvegicus, UniProt P35524)
T1 construct: CIC-1 channels in native tissue of rat skeletal muscle fibres; from tissue; host or cells: whole soleus muscle of 12-14 week old Wistar rats
T1 sequence (P35524 1-994): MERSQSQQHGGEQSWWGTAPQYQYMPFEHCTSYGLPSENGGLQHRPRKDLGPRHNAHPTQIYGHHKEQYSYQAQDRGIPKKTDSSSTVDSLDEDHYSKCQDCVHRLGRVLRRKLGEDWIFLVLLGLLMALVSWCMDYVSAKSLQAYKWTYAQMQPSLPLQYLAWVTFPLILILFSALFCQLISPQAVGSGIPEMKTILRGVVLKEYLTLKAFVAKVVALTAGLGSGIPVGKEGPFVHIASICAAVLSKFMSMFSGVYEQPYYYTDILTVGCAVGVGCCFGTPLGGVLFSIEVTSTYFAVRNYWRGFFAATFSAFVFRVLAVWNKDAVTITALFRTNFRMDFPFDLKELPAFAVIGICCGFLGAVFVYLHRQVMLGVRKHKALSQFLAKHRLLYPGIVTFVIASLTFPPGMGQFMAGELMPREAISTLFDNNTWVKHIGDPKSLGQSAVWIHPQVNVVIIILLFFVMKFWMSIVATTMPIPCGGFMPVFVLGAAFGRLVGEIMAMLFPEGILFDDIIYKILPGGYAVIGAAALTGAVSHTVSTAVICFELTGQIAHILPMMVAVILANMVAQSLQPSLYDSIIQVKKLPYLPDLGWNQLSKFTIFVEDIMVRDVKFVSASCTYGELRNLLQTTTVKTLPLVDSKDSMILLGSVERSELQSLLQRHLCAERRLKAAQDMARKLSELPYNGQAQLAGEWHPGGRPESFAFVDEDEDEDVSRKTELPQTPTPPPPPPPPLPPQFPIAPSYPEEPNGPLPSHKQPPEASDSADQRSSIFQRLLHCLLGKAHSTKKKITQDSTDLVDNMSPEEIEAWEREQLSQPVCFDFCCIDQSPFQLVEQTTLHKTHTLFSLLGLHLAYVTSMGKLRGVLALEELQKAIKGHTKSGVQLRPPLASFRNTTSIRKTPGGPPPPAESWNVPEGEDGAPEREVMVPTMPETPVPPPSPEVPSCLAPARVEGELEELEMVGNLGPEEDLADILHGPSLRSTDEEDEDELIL
Test: Electrophysiological measurement (Gm, three micro-electrodes) of compound inhibition of CIC-1 in rat soleus muscle fibres
Assay type: cell-based
Conditions: approx. 30° C., four increasing compound concentrations, read-out: EC50 (inhibition of CIC-1 ion channel, reduction of Gm)
Description: FIG. 1. […] Please note that the drawing illustrates only the impaled fibre although it is part of an intact muscle that contains many such fibres. All electrodes recorded the membrane potential of the fibre and the two peripheral electrodes were used to inject current (−30 nA, 50 ms). The electrodes were inserted with known inter-electrode distances (X1, X2 and X3). After insertion, current was passed first via the V1 electrode and then via the V3 electrode. The resulting deflections in the membrane voltage were measured by the other electrodes. The steady state deflections in membrane potential were measured and divided by the magnitude of the injected current (−30 nA) to obtain transfer resistances. These were next plotted against inter-electrode distances, and fitted to an exponential function (Panel B), from which Gm could be calculated using linear cable theory. The approach described in panel A and B, was repeated for several muscle fibres in the muscle during exposure at increasing concentrations of compound E-8, with approx. 10 fibres at each concentration. Average Gm at each concentration was plotted as a function of compound concentration in panel C, and fitted to a 4-parameter sigmoidal function from which the EC50 value for the compound was obtained (dashed line)
Apparent CIC-1 affinity was reported by the concentration of compound at which 50% of the compound's full inhibition of CIC-1 was observed (EC50).
CIC-1 Cl^− ion channels generate around 80% of the total membrane conductance (Gm) in resting skeletal muscle fibres of most animals including rat and human (Bretag, A H. Muscle chloride channels. Physiological Reviews, 1987, 67, 618-724). […] CIC-1 inhibition would in such recordings be reflected by a reduction of Gm.
Experimentally, Gm was measured in individual fibres of whole rat soleus muscles using a three micro-electrodes technique described in this example and in full detail elsewhere (Riisager et al., Determination of cable parameters in skeletal muscle fibres during repetitive firing of action potentials. Journal of Physiology, 2014, 592, 4417-4429). Briefly, intact rat soleus muscles were dissected out from 12-14 week old Wistar rats and placed in an experimental chamber that was perfused with a standard Krebs Ringer solution containing 122 mM NaCl, 25 mM NaHCO3, 2.8 mM KCl, 1.2 mM KH2PO4, 1.2 mM MgSO4, 1.3 mM CaCl2, 5.0 mM D-glucose. During experiments, the solution was kept at approx. 30° C. and continuously equilibrated with a mixture of 95% O2 and 5% CO2, pH˜7.4. The experimental chamber was placed in Nikon upright microscope that was used to visualize individual muscle fibres and the three electrodes (glass pipettes filled with 2 M potassium citrate). For Gm measurements, the electrodes were inserted into the same fibre with known inter-electrode distances of 0.35-0.5 mm (V1-V2, X1) and 1.1-1.5 mm (V1-V3, X3) (FIG. 1A). The membrane potential of the impaled muscle fibre was recorded by all electrodes. Two of the electrodes were furthermore used to inject 50 ms current pulses of −30 nA. […] The steady state voltage deflection at each distance was divided by the magnitude of current injected (−30 nA) and the resulting transfer resistances were plotted against inter-electrode distance and the data was fitted to a mono-exponential function from which Gm could be calculated using linear cable theory (FIG. 1B).
To establish a dose response relationship, Gm was first determined in 10 muscle fibres in the absence of compound and then at four increasing compound concentrations with Gm determinations in 5-10 fibres at each concentration. The average Gm values at each concentration were plotted against compound concentration and the data was fitted to sigmoidal function to obtain an EC50 value (FIG. 1C).

SMILES | EC50 [µM]
C[C@H](Oc1ccc(Cl)cc1)C(=O)NOC1CCC1 [Compound C-80, (2S)-2-(4-chlorophenoxy)-N-cyclobutoxypropanamide] | 2.6
C[C@H](Oc1ccc(Br)cc1F)c1nn[nH]n1 [Compound E-8, 5-[(1S)-1-(4-bromo-2-fluorophenoxy)ethyl]-2H-1,2,3,4-tetrazole] | 6.6
